Experimental findings from the supplement of paper PMC11061612 are described below.

In one test the test system is A375 (Melanoma). The experiment in a line: Bliss excess, mean over the matrix (fraction); higher = more synergy. A digest of the protocol:
(§1)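 Cell lines grown in DMEM/F12 or RPMI with 10% FBS were plated in 1536-well plates and held 24 hours at 37°C, 5% CO2 before 72 hours of exposure to two-drug dose matrices, with DMSO typically at 0.2%. CellTiter-Glo 2.0 luminescence gave viability, which was converted to inhibition. Vehicle wells were set to 0 and blank wells to 1. Combination Emax is the second-highest inhibition in the matrix, and Bliss excess is the observed combination effect minus the expected EA + EB − EA·EB, where EA and EB are the single-agent effects.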

For test [1], the system named is BT-474 (Breast Carcinoma). Described as above. A digest of the protocol:
as §1

The test system of a further test is C32 (Melanoma). The description is as above. The method in brief: as §1
A further test concerns DK-MG (Glioblastoma). Described as above. A digest of the protocol:
as §1

Test [2] deals with HT-1197 (Bladder Carcinoma). The description is as above. The method in brief: as §1
The test system of test [3] is KNS-62 (Squamous Cell Lung Carcinoma). The description is as above. A digest of the protocol: as §1
For test [4], the system named is MDA-MB-175-VII (Breast Carcinoma). The description is as above. A digest of the protocol:
as §1

Test [5] deals with NCI-H1048 (Small Cell Lung Carcinoma). The test is described as above. A digest of the protocol: as §1
The subject of test [6] is NCI-H2023 (Non-Small Cell Lung Carcinoma). Described as above. A digest of the protocol:
as §1

Test [7] relates to OVKATE (Ovarian Carcinoma). The test is described as above. The method in brief: as §1
Test [8] has as its system RVH-421 (Melanoma). The description is as above. The method in brief:
as §1

In the next test the test system is SK-MEL-24 (Melanoma). The test is described as above. A digest of the protocol:
as §1

Test [9] deals with SNU-1 (Gastric Carcinoma). Described as above. The method in brief:
as §1

Test [10] has as its system SW1463 (Colorectal Carcinoma). The description is as above. A digest of the protocol: as §1
Test [11] concerns TOV-21G (Ovarian Carcinoma). Described as above. A digest of the protocol: as §1
The subject of test [12] is RVH-421 (Melanoma). The experiment in a line: combination Emax (second highest fraction inhibited in the dose matrix, 72 h); higher = more inhibition; extreme values may be limits of the assay. A digest of the protocol: as §1
Test [13] relates to NCI-H835 (Other Solid Carcinomas). The test is described as follows: Bliss excess, mean over the matrix (fraction); higher = more synergy. A digest of the protocol:
as §1

Test [14] shares this test system. The test is described as follows: combination Emax (second highest fraction inhibited in the dose matrix, 72 h); higher = more inhibition; extreme values may be limits of the assay. The method in brief:
as §1
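Throughout, for Bliss excess, mean over the matrix: after 72 h of two-drug dosing.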

Regarding `CN(CCO)CC[C@H](CSc1ccccc1)Nc1ccc(S(=O)(=O)NC(=O)c2ccc(N3CCC([C@@H](O)c4ccccc4-c4ccc(Cl)cc4)CC3)cc2)cc1S(=O)(=O)C(F)(F)F` [AZD4320] + Cn1cnc2c(F)c(Nc3ccc(Br)cc3Cl)c(C(=O)NOCCO)cc21 [Selumetinib] (first compound max 1 µM, 7x7, partner max 3 µM), the Bliss excess with A375 (Melanoma) is -0.0112; in test [1], -0.002; in the test on C32 (Melanoma), 0.0196; in the test with DK-MG (Glioblastoma) it was 0.0286; in test [2], 0.0079; in test [3], 0.03. The Bliss excess in [4] is 0.0188; in test [5], 0.0198; in test [6] it was 0.0178; in [7] it was -0.0247; in the test with RVH-421 (Melanoma) [8], 0.106; with SK-MEL-24 (Melanoma), -0.0168. The Bliss excess was 0.0212 in test [9], 0.0106 in [10] and 0.0593 in test [11]. In the test on RVH-421 (Melanoma) [12], the “combination Emax” value turned out to be 0.643.
As for `CC1(C)CCC(CN2CCN(c3ccc(C(=O)NS(=O)(=O)c4ccc(NCC5CCOCC5)c([N+](=O)[O-])c4)c(Oc4cnc5[nH]ccc5c4)c3)CC2)=C(c2ccc(Cl)cc2)C1` [Venetoclax] + CCN(CCO)CCCOc1ccc2c(Nc3cc(CC(=O)Nc4cccc(F)c4)[nH]n3)ncnc2c1 [AZD2811] (first compound max 1 µM, 7x7, partner max 1 µM), the Bliss excess with A375 (Melanoma) is -0.0095; in test [1], -0.0035; with C32 (Melanoma), -0.0014; in the test with DK-MG (Glioblastoma), -0.0784; in test [2], -0.0204; in test [3], 0.0131. Moreover, the Bliss excess is -0.0228 in test [4]; 0.103 in test [5]; -0.067 in [6]; -0.0661 in test [7]; -0.0636 in the test on RVH-421 (Melanoma) [8]; -0.053 with SK-MEL-24 (Melanoma). For the same molecule, the values for the Bliss excess in test [9], in test [10] and in test [11] were 0.0266, -0.0389 and 0.0149, respectively. The “combination Emax” value with RVH-421 (Melanoma) [12] was 0.164.
With `CN(CCO)CC[C@H](CSc1ccccc1)Nc1ccc(S(=O)(=O)NC(=O)c2ccc(N3CCC([C@@H](O)c4ccccc4-c4ccc(Cl)cc4)CC3)cc2)cc1S(=O)(=O)C(F)(F)F` [AZD4320] + C=CCn1c(=O)c2cnc(Nc3ccc(N4CCN(C)CC4)cc3)nc2n1-c1cccc(C(C)(C)O)n1 [AZD1775] (first compound max 1 µM, partner max 1 µM), the Bliss excess in the test on A375 (Melanoma) was 0.0133; in test [1], -0.0232; in the test on C32 (Melanoma), 0.108; with DK-MG (Glioblastoma), -0.0789; in test [2] it was 0.0626; in test [3], -0.0543. In addition, the Bliss excess was 0.0035 in [4]; 0.27 in test [5]; -0.0108 in test [6]; 0.0271 in test [7]; 0.0274 in the test with RVH-421 (Melanoma) [8]; 0.001 in the test with SK-MEL-24 (Melanoma). Besides, the Bliss excess is 0.127 in test [9], -0.044 in test [10] and -0.0299 in test [11]. Further, in the test on RVH-421 (Melanoma) [12], the “combination Emax” value was found to be 0.442.
As for `CN(CCO)CC[C@H](CSc1ccccc1)Nc1ccc(S(=O)(=O)NC(=O)c2ccc(N3CCC([C@@H](O)c4ccccc4-c4ccc(Cl)cc4)CC3)cc2)cc1S(=O)(=O)C(F)(F)F` [AZD4320] + CN(C)CCCOc1ccc(-c2ccc3ncc4c(c3c2)n(C2CCOCC2)c(=O)n4C)cn1 [AZD0156] (first compound max 1 µM, 7x7, partner max 1 µM), the Bliss excess was -0.0357 with A375 (Melanoma); -0.057 in test [1]; -0.0182 with C32 (Melanoma); -0.0539 in the test with DK-MG (Glioblastoma); -0.0506 in test [2]; -0.0566 in test [3]. Moreover, the Bliss excess in test [4] is -0.0322; in test [5], 0.0406; in test [6], -0.0922; in test [7], -0.104; in the test on RVH-421 (Melanoma) [8], -0.0254; in the test on SK-MEL-24 (Melanoma) it was -0.0838. In addition, the figures for the Bliss excess in test [9], in [10] and in test [11] were 0.0192, -0.06 and -0.0262, respectively. Further, the “combination Emax” value in the test with RVH-421 (Melanoma) [12] is 0.164.
In the case of `C=CCn1c(=O)c2cnc(Nc3ccc(N4CCN(C)CC4)cc3)nc2n1-c1cccc(C(C)(C)O)n1` [AZD1775] + C[C@@H]1COCCN1C2=NC(=NC(=C2)C3(CC3)[S@](=N)(=O)C)C4=C5C=CNC5=NC=C4 [AZD6738] (first compound max 1 µM, partner max 10 µM), the Bliss excess is 0.0154 with A375 (Melanoma); -0.0425 in test [1]; 0.0073 in the test with C32 (Melanoma); -0.0342 in the test on DK-MG (Glioblastoma); -0.0057 in [2]; 0.0257 in [3]. The Bliss excess in test [4] is -0.0184; in test [5], 0.0582; in test [6] it was -0.0674; in test [7] it was -0.0703; in the test on RVH-421 (Melanoma) [8], -0.0495; with SK-MEL-24 (Melanoma), -0.0189. The Bliss excess in [10] was -0.0807; in test [11], -0.0523. The “combination Emax” value in the test with RVH-421 (Melanoma) [12] stood at 0.213.
In the case of `C[C@@H]1COCCN1c1cc(C2([S@](C)(=N)=O)CC2)nc(-c2ccnc3[nH]ccc23)n1` [AZD6738] + O=C(c1cc(Cc2n[nH]c(=O)c3ccccc23)ccc1F)N1CCN(C(=O)C2CC2)CC1 [Olaparib] (first compound max 10 µM, 7x7, partner max 10 µM), the Bliss excess was 0.0238 in the test on A375 (Melanoma); -0.0135 in [1]; 0.0019 in the test with C32 (Melanoma); 0.0079 in the test with DK-MG (Glioblastoma); -0.0042 in test [2]; 0.0026 in test [3]. Also, the Bliss excess in [4] was 0.0522; in [5], 0.0581; in test [6], 0.0867; in test [7], -0.0115; in the test on RVH-421 (Melanoma) [8], -0.0324; with SK-MEL-24 (Melanoma), -0.0105. Moreover, the Bliss excess in test [9] was -0.0358; in test [11], 0.0035. In the test with RVH-421 (Melanoma) [12], the “combination Emax” value was found to be 0.215.
Turning to `NC1(C(=O)N[C@@H](CCO)c2ccc(Cl)cc2)CCN(c2ncnc3[nH]ccc23)CC1` [Capivasertib] + CCN(CCO)CCCOc1ccc2c(Nc3cc(CC(=O)Nc4cccc(F)c4)[nH]n3)ncnc2c1 [AZD2811] (first compound max 10 µM, 7x7, partner max 1 µM), the Bliss excess in the test with A375 (Melanoma) is -0.0008; in test [1], 0.0025; in the test with C32 (Melanoma), 0.0477; in the test on DK-MG (Glioblastoma) it was -0.0447; in test [2] it was 0.016; in test [3], -0.0086. Besides, the Bliss excess in [4] was -0.0202; in test [5], -0.0003; in test [6], -0.0087; in test [13], -0.103; in [7] it was -0.0367; with SK-MEL-24 (Melanoma) it was -0.0891. Moreover, the Bliss excess in test [9] is 0.0214; in test [10], -0.0239; in test [11], 0.0123. Moreover, the “combination Emax” value in [14] was 0.535.
